Assay results: US20130303500A1, “COMPOUNDS AND METHODS FOR TREATING NEOPLASIA” (Medexis S.A., priority 2010, published 2013)
pIC50: −log10 of the molar value.

Tests used:
[1] = tested on: A549 (Lung) cells; test: Sulforhodamine B (SRB) assay, A549; assay type: cell-based; conditions: Homo sapiens; for CC50: A549, 48 h, read-out: LC50; for GI50 / IC (TGI): A549 Lung, SRB, 48 h
Method: (§1) Sulforhodamine B (SRB) assays were performed according to standard National Cancer Institute Guidelines. Briefly, human tumor cells from different cancer panels were seeded into 96 well plates in […] (plating densities ranging from 5-40,000 cells/well depending on the doubling time of individual cell lines) in serum-containing media for twenty-four hours prior to the addition of the compounds to be assayed. After 24 hours, one plate of each cell line was fixed in situ with trichloroacetic acid (TCA). The fixed slides were used to determine the cell population for each cell line at the time of drug addition (Tz). Each compound to be tested was solubilized in dimethyl sulfoxide (DMSO) and the desired concentration was then added to the medium and diluted serially 1:10 to provide a total of five or ten drug concentrations plus control (in a final volume of 200 μL). The starting dose before any dilution was 100 uM for all compounds.
(§2) Following drug addition, each culture was incubated for forty-eight hours. The assay was terminated with the addition of cold TCA. The supernatant was discarded, and the plates were washed with tap water and air dried. SRB solution was then added to each well. After staining, the bound stain was solubilized and the absorbance was read on an automated plate reader at a wavelength of 515 nm.
(§3) Using the absorbance measurements [time zero, (Tz), control growth, (C), and test growth in the presence of drug at the ten concentration levels (Ti)], the percentage growth was calculated at each of the drug concentrations levels. Percentage growth inhibition was calculated as:
(§4) [(Ti−Tz)/(C−Tz)]×100 for concentrations for which Ti>/=Tz
(§5) [(Ti−Tz)/Tz]×100 for concentrations for which Ti<Tz.
(§6) Three dose response parameters were calculated for each experimental agent. Growth inhibition of 50% (GI50) was calculated from [(Ti−Tz)/(C−Tz)]×100=50, which was the drug concentration resulting in a 50% reduction in the net protein increase (as measured by SRB staining) in control cells during the drug. The drug concentration resulting in total growth inhibition (TGI) was calculated from Ti=Tz. The LC50 (concentration of drug resulting in a 50% reduction in the measured protein at the end of the drug treatment as compared to that at the beginning) indicating a net loss of cells following treatment was calculated from [(Ti−Tz)/Tz]×100=−50.
(§7) Values were calculated for each of these three parameters when the level of activity was reached; however, if the effect was not reached or was exceeded, the value for that parameter was expressed as greater or less than the maximum or minimum concentration tested.

[2] = tested on: H460 (Lung) cells; test: Sulforhodamine B (SRB) assay, H460; assay type: cell-based, human; conditions: for CC50 / GI50: Homo sapiens; for CC50: NCI-H460, 48 h, read-out: LC50; for GI50: NCI-H460
Method: as §1, §2, §3, §4, §5, §6, §7

[3] = tested on: NCI-ADR-RES (Ovarian) cells; test: Sulforhodamine B (SRB) assay, NCI-ADR-RES (multidrug resistant); assay type: cell-based, human; conditions: 48 h; for CC50 / GI50: Homo sapiens; for CC50: NCI/ADR-RES, read-out: LC50
Method: as §1, §2, §3, §4, §5, §6, §7

[4] = tested on: PC3 (Prostate) cells; test: Sulforhodamine B (SRB) assay, PC3; assay type: cell-based; conditions: Homo sapiens, Prostate cell, 48 h; for CC50: read-out: LC50; for GI50 / IC (TGI): PC3 Prostate, SRB
Method: as §1, §2, §3, §4, §5, §6, §7

[5] = tested on: SF268 (CNS) cells; test: Sulforhodamine B (SRB) assay, SF268; assay type: cell-based; conditions: Homo sapiens; for CC50: SF-268, 48 h, read-out: LC50; for GI50 / IC (TGI): SF-268, SF268 CNS, SRB, 48 h
Method: as §1, §2, §3, §4, §5, §6, §7

[6] = tested on: MCF7 (Breast) cells; test: Sulforhodamine B (SRB) assay, MCF7; assay type: cell-based, human; conditions: for CC50 / GI50: Homo sapiens; for CC50: MCF7, 48 h, read-out: LC50
Method: as §1, §2, §3, §4, §5, §6, §7

[7] = tested on: HCT116 (Colon) cells; test: Sulforhodamine B (SRB) assay, HCT116; assay type: cell-based, human; conditions: for CC50 / GI50: Homo sapiens; for CC50: HCT-116, 48 h, read-out: LC50; for GI50: HCT-116
Method: as §1, §2, §3, §4, §5, §6, §7

[8] = tested on: 7 different cell lines (lung, ovarian, prostate, CNS, breast, colon); test: SRB assays across 7 cell lines; assay type: cell-based, human; conditions: for viability and/or cell proliferation of cell lines: cell lines representative of lung, breast, CNS, prostate, ovarian, colon and renal neoplasias
Method: as §1, §2, §3, §4, §5, §6, §7
SRB provides a colorimetric measure of a compound's anti-cancer activity. SRB assays were performed with compounds of the invention in 7 different cell lines, which represent six different tumor panels (lung, ovarian, prostate, CNS, breast, colon).

[9] = molecular target: Na+/K+-ATPase (Adenosine 5′-Triphosphatase isolated from porcine cerebral cortex); test: Na+/K+-ATPase inhibitory activity, colorimetric Adenosine 5′-Triphosphatase Enzymatic Assay (Sigma); assay type: biochemical; conditions: enzyme from porcine cerebral cortex, 0.5 units/ml
Method: The compound inhibitory effect on ATPase activity was assessed in vitro using the colorimetric Adenosine 5′-Triphosphatase Enzymatic Assay of Sigma (St. Louis, Mo.) according to the manufacturer's instructions. This assay utilizes Adenosine 5′-Triphosphatase isolated from porcine cerebral cortex. Each reaction was performed in a final volume of […] using 0.5 units/ml enzyme in the presence of the different inhibitors. […] IC50 values were determined using the Origin® program software (OriginLab, Northampton, Mass.).

[10] = tested on: DU145 (Prostate) cells; test: MTT cell proliferation/viability assay, DU145; assay type: cell-based; conditions: Homo sapiens, DU-145, 72 h
Method: Cell proliferation/viability was assessed by the MTT [3-(4,5-dimethylthiazol-2-yl)-2,5-diphenyltetrazolium bromide] assay, which is commercially available (Sigma, St. Louis, Mo.). Cells were cultured in 96-well plates for twenty-four hours (7-10.000 cells/well) and incubated with various concentrations of the different compounds—as indicated in the Figures—in serum-containing medium (or left untreated) for seventy-two hours. At the end of incubation, the medium was aspirated and MTT dissolved in RPMI 1640 w/o phenol red was added to each well to a final concentration of 0.25 mg/ml. After four hours incubation in the dark (37° C., 5% CO2) the supernatant was discarded. The converted dye (blue formazan crystals) was solubilized by adding 200 μl dimethylsulfoxide to each well. Absorbance was measured at 550 nm with reference at 655 nm using a spectrophotometer with the respective filters. All assays were performed in triplicate.
The effect of the different compounds on the proliferation and viability of two cancer cell lines (DU145/prostate and CAKI/renal) was tested through quantitative (4,5-dimethylthiazol-2-yl)-2,5-diphenyltetrazolium bromide (MTT) assays.

SMILES	CC50 [1] [µM]	GI50 [1] [µM]	IC (TGI) [1] [µM]	CC50 [2] [µM]	GI50 ([2]; H460 Lung, SRB, 48 h) [µM]	CC50 [3] [µM]	GI50 ([3]; NCI-ADR-RES Ovarian, SRB) [µM]	CC50 [4] [µM]	GI50 [4] [µM]	IC (TGI) [4] [µM]	CC50 [5] [µM]	GI50 [5] [µM]	IC (TGI) [5] [µM]	CC50 [6] [µM]	GI50 ([6]; MCF7 Breast, SRB, 48 h) [µM]	CC50 [7] [µM]	GI50 ([7]; HCT116 Colon, SRB, 48 h) [µM]	viability and/or cell proliferation of cell lines [8]	pIC50 [9]	pIC50 [10]	other results
CC1CC2C(CC[C@]3(C)C(=O)C(F)CC23)[C@@]2(C)CCC(=NOC3CCNC3)C=C12 (stereo partly shown) [Compound 86, 16-Fluoro-6,10,13-trimethyl-1,6,7,8,9,10,11,12,13,14,15,16-dodecahydro-2H-cyclopenta[a]phenanthrene-3,17-dione 3-(O-pyrrolidin-3-yl-oxime)]	8.05	2.45	5250	8.07	2.57	48.1	4.13	72.4	5.37	9780	8.11	1.86	4980	59.3	4.35	58.8	3.71	reduced the viability and/or cell proliferation	–	–	–
C[C@]12CCC3C(CC[C@H]4CC(=NO[C@H]5CCNC5)CC[C@]34CO)C1CCC2=O (stereo partly drawn) [Compound 25, (5S,10R,13S)-10-(hydroxymethyl)-13-methyl-3-((S)-pyrrolidin-3-yloxyimino)-tetradecahydro-2H-cyclopenta[a]phenanthren-17(14H)-one]	> 100	4.81	9410	> 100	4.37	–	–	9.44	3.89	–	85.4	5.74	31300	> 100	6.17	–	–	reduced the viability and/or cell proliferation	6.28	4.82	GI50 action in most cell lines ([8]; SRB): single-digit micromolar
C=C1CC2C(CC[C@]3(C)C(=O)C(F)CC23)[C@@]2(C)CCC(=NOC3CCNC3)CC12 (stereo partly drawn) [Compound 6, (5S,10R,13S,16R)-16a-fluoro-6-methylene-10,13-dimethyl-3-((R)-pyrrolidin-3-yloxyimino)-tetradecahydro-2H-cyclopenta[a]phenanthren-17(14H)-one]	0.053	0.005	0.008	0.053	0.003	0.079	0.018	1.24	0.003	0.055	0.071	< 0.001	0.02	1.28	0.009	0.728	0.009	reduced the viability and/or cell proliferation	–	–	TGI ([2]; H460 Lung, SRB, 48 h): 0.008 µM; TGI ([3]; NCI-ADR-RES Ovarian, SRB): 0.049 µM; TGI ([6]; MCF7 Breast, SRB, 48 h): 0.082 µM; TGI ([7]; HCT116 Colon, SRB, 48 h): 0.088 µM; CC50 ([8]; Homo sapiens, read-out: LC50 values): < 1 µM; GI50 ([8]; Homo sapiens, SRB, average over cell lines): < 1 µM; anti-cancer activity in SRB assays ([8]; multiple cell lines): best activity
C[C@]12CCC(=NO[C@H]3CCNC3)C(c3ccccc3)C1CCC1C2CC[C@]2(C)C(=O)CCC12 (stereo partly drawn) [Compound 21, (10R,13S)-10,13-dimethyl-4-phenyl-3-((S)-pyrrolidin-3-yloxyimino)-tetradecahydro-2H-cyclopenta[a]phenanthren-17(14H)-one]	45.3	4.41	–	–	–	–	–	49.1	4.46	–	57.2	4.16	8450	–	–	–	–	reduced the viability and/or cell proliferation	4.71	4.87	GI50 action in most cell lines ([8]; SRB): single-digit micromolar
CON=C1CC2C(CC[C@]3(C)C(=O)CCC23)[C@@]2(CO)CCC(=NOC3CCNC3)CC12 (stereo in doubt) [Compound 30, (5S,10S,13S)-10-(hydroxymethyl)-6-methoxy-imino-13-methyl-3-((S)-pyrrolidin-3-yloxyimino)-tetradecahydro-14H-cyclopenta[a]phenanthrene-17-one]	29.6	4.07	–	–	–	–	–	75.2	7.71	36700	78.4	5.62	25800	–	–	–	–	–	–	5.17	–
